Measured values as given in the supplement of paper PMC10307832.

Assays:
Assay in all cases: relative viability (nuclei count vs DMSO), 5 days (fraction); higher = more cells survive
[1] = tested on: A-427
How it was run: (§1)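 Lung cancer cell lines in 1536-well plates were dosed by pin tool the day after seeding, either with one drug alone or with a fixed anchor-drug dose plus five library-drug doses (not always all listed) in √10 steps. After 5 days, cells were fixed and their nuclei stained in one step (final 0.05% Triton X-100, 1% formaldehyde, 1 ug/ml Hoechst), then counted on 4× images. Relative viability is the nuclei count in treated wells divided by that in vehicle wells. Values are medians of duplicate plates.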

[2] = tested on: COR-L 105
How it was run: as §1

[3] = tested on: H3255
How it was run: as §1

[4] = tested on: HCC-44
How it was run: as §1

[5] = tested on: HCC-827
How it was run: as §1

[6] = tested on: LCLC-103H
How it was run: as §1

[7] = tested on: LOU-NH91
How it was run: as §1

[8] = tested on: LXF-289
How it was run: as §1

[9] = tested on: NCI-H1792
How it was run: as §1

[10] = tested on: NCI-H1793
How it was run: as §1

[11] = tested on: NCI-H1915
How it was run: as §1

[12] = tested on: NCI-H1944
How it was run: as §1

[13] = tested on: NCI-H1975
How it was run: as §1

[14] = tested on: NCI-H1993
How it was run: as §1

[15] = tested on: NCI-H2023
How it was run: as §1

[16] = tested on: NCI-H2087
How it was run: as §1

[17] = tested on: NCI-H2170
How it was run: as §1

[18] = tested on: NCI-H358
How it was run: as §1

[19] = tested on: NCI-H520
How it was run: as §1

[20] = tested on: NCI-H522
How it was run: as §1

[21] = tested on: SK-MES-1
How it was run: as §1

[22] = tested on: SW 1573
How it was run: as §1

[23] = tested on: SW 900
How it was run: as §1

Molecule CN1CCN(CCOc2cc(OC3CCOCC3)c3c(Nc4c(Cl)ccc5c4OCO5)ncnc3c2)CC1 [Saracatinib] + COc1cccc2cc(-c3nc([C@H]4CC[C@H](C(=O)O)CC4)n4ncnc(N)c34)[nH]c12 [OSI-027] (partner 0.5 µM) has a relative viability ([1]; first compound 0.02 µM) of 0.506, a relative viability ([1]; first compound 0.2 µM) of 0.409 and a relative viability ([1]; first compound 0.6325 µM) of 0.445. It also gave a relative viability ([1]; first compound 2 µM) of 0.493, a relative viability ([2]; first compound 0.02 µM) of 0.837 and a relative viability ([2]; first compound 0.2 µM) of 0.628. The relative viability ([2]; first compound 0.6325 µM) was 0.566, the relative viability ([2]; first compound 2 µM) was 0.221 and the relative viability ([3]; first compound 0.02 µM) was 0.587. The relative viability ([3]; first compound 0.2 µM) was 0.589, the relative viability ([3]; first compound 0.6325 µM) was 0.542 and the relative viability ([3]; first compound 2 µM) was 0.284. It also gave a relative viability ([4]; first compound 0.02 µM) of 0.483, a relative viability ([4]; first compound 0.2 µM) of 0.522 and a relative viability ([4]; first compound 0.6325 µM) of 0.592. It also gave a relative viability ([4]; first compound 2 µM) of 0.543, a relative viability ([5]; first compound 0.02 µM) of 0.791 and a relative viability ([5]; first compound 0.2 µM) of 0.564. It also gave a relative viability ([5]; first compound 0.6325 µM) of 0.259, a relative viability ([5]; first compound 2 µM) of 0.122 and a relative viability ([6]; first compound 0.02 µM) of 0.481. For the same molecule, the relative viability ([6]; first compound 0.2 µM) was 0.427, the relative viability ([6]; first compound 0.6325 µM) was 0.505 and the relative viability ([6]; first compound 2 µM) was 0.459. For the same molecule, the relative viability ([7]; first compound 0.02 µM) was 0.756, the relative viability ([7]; first compound 0.2 µM) was 0.556 and the relative viability ([7]; first compound 0.6325 µM) was 0.544. The relative viability ([7]; first compound 2 µM) was 0.413, the relative viability ([8]; first compound 0.02 µM) was 0.765 and the relative viability ([8]; first compound 0.2 µM) was 0.735. For the same molecule, the relative viability ([8]; first compound 0.6325 µM) was 0.744, the relative viability ([8]; first compound 2 µM) was 0.677 and the relative viability ([9]; first compound 0.02 µM) was 0.771. It also gave a relative viability ([9]; first compound 0.2 µM) of 0.462, a relative viability ([9]; first compound 0.6325 µM) of 0.809 and a relative viability ([9]; first compound 2 µM) of 0.558. For the same molecule, the relative viability ([10]; first compound 0.02 µM) was 0.303, the relative viability ([10]; first compound 0.6325 µM) was 0.312 and the relative viability ([10]; first compound 2 µM) was 0.253. For the same molecule, the relative viability ([11]; first compound 0.02 µM) was 0.623, the relative viability ([11]; first compound 0.2 µM) was 0.408 and the relative viability ([11]; first compound 0.6325 µM) was 0.587. It also gave a relative viability ([11]; first compound 2 µM) of 0.474, a relative viability ([12]; first compound 0.02 µM) of 0.43 and a relative viability ([12]; first compound 0.6325 µM) of 0.324. It also gave a relative viability ([12]; first compound 2 µM) of 0.274, a relative viability ([13]; first compound 0.02 µM) of 0.678 and a relative viability ([13]; first compound 0.2 µM) of 0.585. The relative viability ([13]; first compound 0.6325 µM) was 0.686, the relative viability ([13]; first compound 2 µM) was 0.403 and the relative viability ([14]; first compound 0.02 µM) was 0.54. It also gave a relative viability ([14]; first compound 0.2 µM) of 0.508, a relative viability ([14]; first compound 0.6325 µM) of 0.497 and a relative viability ([14]; first compound 2 µM) of 0.525. For the same molecule, the relative viability ([15]; first compound 0.02 µM) was 0.473, the relative viability ([15]; first compound 0.2 µM) was 0.394 and the relative viability ([15]; first compound 0.6325 µM) was 0.316. It also gave a relative viability ([15]; first compound 2 µM) of 0.273, a relative viability ([16]; first compound 0.02 µM) of 0.609 and a relative viability ([16]; first compound 0.2 µM) of 0.393. The relative viability ([16]; first compound 0.6325 µM) was 0.953, the relative viability ([16]; first compound 2 µM) was 0.742 and the relative viability ([17]; first compound 0.02 µM) was 0.694. It also gave a relative viability ([17]; first compound 0.2 µM) of 0.459, a relative viability ([17]; first compound 0.6325 µM) of 0.811 and a relative viability ([17]; first compound 2 µM) of 0.53. The relative viability ([18]; first compound 0.02 µM) was 0.707, the relative viability ([18]; first compound 0.2 µM) was 0.391 and the relative viability ([18]; first compound 0.6325 µM) was 0.466. The relative viability ([18]; first compound 2 µM) was 0.289, the relative viability ([19]; first compound 0.02 µM) was 0.191 and the relative viability ([19]; first compound 0.6325 µM) was 0.262. The relative viability ([19]; first compound 2 µM) was 0.176, the relative viability ([20]; first compound 0.02 µM) was 0.703 and the relative viability ([20]; first compound 0.6325 µM) was 0.692. For the same molecule, the relative viability ([20]; first compound 2 µM) was 0.683, the relative viability ([21]; first compound 0.02 µM) was 0.609 and the relative viability ([21]; first compound 0.2 µM) was 0.603. For the same molecule, the relative viability ([21]; first compound 0.6325 µM) was 0.475, the relative viability ([21]; first compound 2 µM) was 0.234 and the relative viability ([22]; first compound 0.02 µM) was 0.624. For the same molecule, the relative viability ([22]; first compound 0.2 µM) was 0.55, the relative viability ([22]; first compound 0.6325 µM) was 0.667 and the relative viability ([22]; first compound 2 µM) was 0.456. The relative viability ([23]; first compound 0.02 µM) was 0.616, the relative viability ([23]; first compound 0.2 µM) was 0.559 and the relative viability ([23]; first compound 0.6325 µM) was 0.575. For the same molecule, the relative viability ([23]; first compound 2 µM) was 0.443.
